Reference: ChEMBL document CHEMBL1201862, “PubChem BioAssay data set” (2004)
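Cultured in 96-well plates, cells were exposed to test compound for 48 hours across five concentrations. Abbreviation: GI50, concentration required for 50% inhibition of growth.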 Calls of active or inactive are those of the source. No stated cut-off is given here; in the data, active = GI50 up to about 1.1 µM and inactive = higher.

Tests used:
Assay in all cases: inhibition of tumour cell growth, NCI panel, 48 h
A549 = tested on: A549
BT-549 = tested on: BT-549
HCT-116 = tested on: HCT-116
Hs-578T = tested on: Hs-578T
KM12 = tested on: KM12
M14 = tested on: M14
MDA-MB-435 = tested on: MDA-MB-435
NCI-H226 = tested on: NCI-H226
OVCAR-5 = tested on: OVCAR-5
OVCAR-8 = tested on: OVCAR-8
RPMI-8226 = tested on: RPMI-8226
SK-MEL-28 = tested on: SK-MEL-28
SK-MEL-2 = tested on: SK-MEL-2
SK-MEL-5 = tested on: SK-MEL-5
SK-OV-3 = tested on: SK-OV-3
SN12C = tested on: SN12C
SNB-19 = tested on: SNB-19
SW-620 = tested on: SW-620
TK-10 = tested on: TK-10
UO-31 = tested on: UO-31

Measured: GI50

Nc1nc(CCl)nc(N2CCOCC2)n1
inactive: A549 > 100 µM | BT-549 31.7 µM | HCT-116 21.5 µM | Hs-578T 38.1 µM | KM12 32.1 µM | M14 27.1 µM | MDA-MB-435 29.2 µM | NCI-H226 37.4 µM | OVCAR-5 19.9 µM | OVCAR-8 34.8 µM | RPMI-8226 32.4 µM | SK-MEL-28 20.4 µM | SK-MEL-2 > 100 µM | SK-MEL-5 20.1 µM | SK-OV-3 45.6 µM | SN12C 36.1 µM | SNB-19 > 100 µM | SW-620 24.4 µM | TK-10 62.7 µM | UO-31 17.3 µM

COc1ccc(N2C(=O)C3c4[nH]c5ccc(F)cc5c4C4CCC(c5ccccc5)CC4C3C2=O)cc1 (stereo not given)
inactive: A549 11.6 µM | BT-549 17.3 µM | HCT-116 20.7 µM | Hs-578T 10.8 µM | KM12 20.7 µM | M14 12.9 µM | MDA-MB-435 16.6 µM | NCI-H226 54.8 µM | OVCAR-5 18.3 µM | OVCAR-8 17.8 µM | RPMI-8226 32.8 µM | SK-MEL-28 13.5 µM | SK-MEL-2 21.8 µM | SK-MEL-5 21.6 µM | SK-OV-3 22.5 µM | SN12C 26.2 µM | SNB-19 11.1 µM | SW-620 8.38 µM | TK-10 21.9 µM | UO-31 21.4 µM

CC(C)(C)c1cc(OCc2nn3c(Cc4ccccc4)nnc3s2)c(Cl)cc1OCc1nn2c(Cc3ccccc3)nnc2s1
inactive: A549 29.7 µM | BT-549 25.1 µM | HCT-116 16.6 µM | Hs-578T > 100 µM | KM12 26.9 µM | M14 29.7 µM | MDA-MB-435 26.4 µM | NCI-H226 > 100 µM | OVCAR-5 60.8 µM | OVCAR-8 25.3 µM | RPMI-8226 10.6 µM | SK-MEL-28 36.2 µM | SK-MEL-2 30.8 µM | SK-MEL-5 8.65 µM | SK-OV-3 > 100 µM | SN12C 34.8 µM | SNB-19 80.9 µM | SW-620 43.6 µM | TK-10 34.4 µM | UO-31 31.1 µM

C=C1CC[C@@]2(OC1)OC1C[C@H]3[C@@H]4CC=C5C[C@@H](O)CC(OC6OCC(OC(=O)[C@@H](O)[C@@H](C)CC)C(OC(C)=O)C6OC6OC(C)C(O)C(O)C6O)[C@]5(C)[C@H]4CC[C@]3(C)C1[C@@H]2C (stereo not given in full)
inactive: A549 2.21 µM | BT-549 3.76 µM | HCT-116 1.65 µM | Hs-578T 3.4 µM | KM12 2.14 µM | M14 2.11 µM | MDA-MB-435 1.76 µM | NCI-H226 2.64 µM | OVCAR-5 2.04 µM | OVCAR-8 2.16 µM | RPMI-8226 2.09 µM | SK-MEL-28 2.2 µM | SK-MEL-2 1.57 µM | SK-MEL-5 1.97 µM | SK-OV-3 1.83 µM | SN12C 2.25 µM | SNB-19 1.96 µM | SW-620 2.1 µM | TK-10 1.88 µM | UO-31 2.4 µM

COc1ccc(N2C(=O)C3c4[nH]c5ccc(OCc6ccccc6)cc5c4C4CCC(c5ccccc5)CC4C3C2=O)cc1 (stereo not given)
inactive: A549 9.64 µM | BT-549 4.55 µM | HCT-116 11.1 µM | Hs-578T 5.42 µM | KM12 27 µM | M14 6.78 µM | MDA-MB-435 3.22 µM | NCI-H226 19.2 µM | OVCAR-5 30.5 µM | OVCAR-8 8.91 µM | RPMI-8226 6.61 µM | SK-MEL-28 1.94 µM | SK-MEL-2 23.1 µM | SK-MEL-5 8.22 µM | SK-OV-3 4.98 µM | SN12C 33.7 µM | SNB-19 11 µM | SW-620 2.02 µM | TK-10 7.55 µM | UO-31 53.6 µM

COC(=O)[C@H](CCSC)NC(=O)c1ccc(CNC(=O)/C=C/c2cccc(Oc3ccccc3)c2)cc1
inactive: A549 98.4 µM | BT-549 > 69.7 µM | HCT-116 > 100 µM | Hs-578T 59.2 µM | KM12 > 100 µM | M14 13.5 µM | MDA-MB-435 14.3 µM | NCI-H226 > 23.8 µM | OVCAR-5 > 100 µM | OVCAR-8 > 100 µM | RPMI-8226 45.5 µM | SK-MEL-28 17.4 µM | SK-MEL-2 14.8 µM | SK-MEL-5 15.6 µM | SK-OV-3 > 100 µM | SN12C 60.5 µM | SNB-19 > 95.1 µM | SW-620 77.4 µM | TK-10 > 45.3 µM | UO-31 42.9 µM
